Values joined by “and” are separate entries in the source; they are usually repeats but may differ in a detail not shown here. Identical values can stand only once.
The compounds below were run against T1, cAMP-specific 3',5'-cyclic phosphodiesterase 4B (Rattus norvegicus, UniProt P14646).
T1 sequence (P14646 whole entry): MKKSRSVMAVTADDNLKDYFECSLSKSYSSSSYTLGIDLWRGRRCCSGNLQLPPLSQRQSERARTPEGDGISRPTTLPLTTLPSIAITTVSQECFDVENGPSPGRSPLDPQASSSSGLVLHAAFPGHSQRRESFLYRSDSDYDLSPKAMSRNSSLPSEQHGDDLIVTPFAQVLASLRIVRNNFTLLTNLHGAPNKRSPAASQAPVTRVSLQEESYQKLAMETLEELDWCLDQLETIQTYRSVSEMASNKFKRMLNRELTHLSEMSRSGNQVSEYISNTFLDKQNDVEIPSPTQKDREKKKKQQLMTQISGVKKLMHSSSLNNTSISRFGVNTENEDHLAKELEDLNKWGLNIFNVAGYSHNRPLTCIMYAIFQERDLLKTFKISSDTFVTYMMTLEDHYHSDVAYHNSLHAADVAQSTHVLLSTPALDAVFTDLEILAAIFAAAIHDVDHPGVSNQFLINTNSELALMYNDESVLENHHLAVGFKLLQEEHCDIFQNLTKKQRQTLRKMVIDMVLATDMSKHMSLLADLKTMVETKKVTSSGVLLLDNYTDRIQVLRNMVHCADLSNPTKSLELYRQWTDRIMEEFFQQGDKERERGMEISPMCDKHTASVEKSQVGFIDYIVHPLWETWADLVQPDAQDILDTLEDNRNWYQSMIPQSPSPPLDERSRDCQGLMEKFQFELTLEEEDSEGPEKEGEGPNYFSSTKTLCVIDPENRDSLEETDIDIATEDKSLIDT

Row | Ki | Compound
1 | 8.4 µM and 3.09 µM | CC(C)Cn1c(=O)n(C)c(=O)c2[nH]cnc21 [1-methyl-3-(2-methylpropyl)-2,3,6,7-tetrahydro-1H-purine-2,6-dione]
2 | > 10 µM and 3.15 µM | COc1cc2c(cc1OC)-c1c/c(=N\c3c(C)cc(C)cc3C)n(C)c(=O)n1CC2 [CAS_5537]
3 | 0.9 µM and 1.25 µM | COc1ccc(C(Cc2ccncc2)c2ccccc2)cc1OC1CCCC1 (configuration not stated) [CDP 840]
4 | 0.003 µM and 0.0024 µM | O=C(Nc1c(Cl)cncc1Cl)c1ccc(OC(F)F)c(OCC2CC2)c1 [DAXAS]
5 | > 10 µM | Cc1[nH]c(=O)c(C#N)cc1-c1ccncc1 [Milrinone]
6 | 1 µM | CCOC(=O)C1=CC2(CC)CCCN3CCc4c(n1c1ccccc41)C32 (configuration not stated) [NSC_443955]

Row | Compound | Ki
7 | COc1ccc(Cc2nccc3cc(OC)c(OC)cc23)cc1OC | > 10 µM and 8.82 µM
